{
  "source": "patent US7186755B2",
  "about": "(Helsinn Health Care S.A., priority 1997, dated 2007)",
  "key": {"[1]": {"conditions": "rats, 14C nimesulide"}, "[2]": {"conditions": "human volunteers, 14C nimesulide"}},
  "note": "Where two headings read alike, the source gives them in different places.",
  "data": [
    {"smiles": "CS(=O)(=O)Nc1ccc([N+](=O)[O-])cc1Oc1ccccc1", "note": "[Nimesulide]", "values": [
      {"measurement": "Systemic concentrations of nimesulide after dermal application", "setting": "[1]", "result": "no significant systemic concentrations"},
      {"measurement": "Systemic concentrations of nimesulide after dermal application", "setting": "[2]", "result": "no significant systemic concentrations"}
    ]}
  ]
}
